In patent US20250051391A1, “PEPTIDE INHIBITORS AND METHODS FOR INHIBITING PROTEIN AGGREGATION IN NEURONS AND NEURODEGENERATIVE DISEASES” (THE GOVERNING COUNCIL OF THE UNIVERSITY OF TORONTO, priority 2021, published 2025):

System: HEK293 cells overexpressing A53T a-syn
Test: Cytotoxicity screen of lentiviral 7-mer peptide library, Alpha syn A53T cells under MG132
Type: cell-based, human
Text: A screening system to discover candidate peptides to perturb endogenous PPIs based on libraries of short linear interaction motifs that mediate a large fraction (˜30%) of human PPIs (10-12) was recently developed. Here, a lentiviral library of 50,549 7-mer peptide motifs (13) on a green fluorescent protein (GFP) scaffold (FIG. 1A) was used. Cells in a pooled format were infected and the amino acid sequence of each peptide served as its own barcode. By using a low multiplicity of infection followed by puromycin selection, each infected cell expressed one unique GFP-peptide. Peptides that reduced a-syn-mediated cytotoxicity or a-syn oligomers in parallel (FIG. 1A), were screened for.
To cause cytotoxicity relevant to PD, proteostatic stress in HEK293 cells was induced by inhibiting the proteasome with MG132 and inducing the overexpression of human a-syn (WT) from idiopathic PD in one screen and the more toxic A53T mutant from familial PD in a second screen. The combination of a-syn overexpression and pharmacological proteasome inhibition led to death of most cells, with only those that expressed a protective peptide surviving. By extracting genomic DNA from the surviving cells and amplifying the peptide coding sequences, the protective peptides (FIG. 1A) were identified.
PCR primers that included the Illumina adaptor sequences were used to amplify peptide coding sequences recovered from selection and cell sorting. Results were demultiplexed, and peptide counts were tallied. After demultiplexing, only reads with an average quality Phred score of >30 were selected, and frequencies were calculated. Finally, the reads were then normalized to the total number of peptides read for that sample population, and a scalar factor was applied. In parallel, ˜25 individual colonies were Sanger sequenced to compare to the NGS data.
Lentiviruses were made in a 15 cm dish format by transfecting packaging cells (293T) with a three-plasmid system as previously described. Viral transduction of HEK293T cells, tet-off split luciferase a-syn cells, tet-off parent cells, and SH-SY5Y cells were performed with a multiplicity of infection of 0.3 (MOI=0.3). Infected cells were selected in puromycin-containing medium to eliminate uninfected cells and three aliquots of cells were collected for sampling of the initial (TO) cell population. Cells were treated with MG132 at concentrations of 0 μM, 10 μM, 25 μM or 50 μM. For the cell viability screen, surviving cells were collected and gDNA was extracted for identification of peptide inhibitors of cell toxicity. For the inhibition of a-syn aggregation screen, split YFP-a-syn constructs were transfected following stable expression of the peptides. Cells were sorted based on their GFP fluorescence intensities with a FACSVantage SE cell sorter (BD Bioscience).
Genomic DNA (gDNA) from peptide expressing cells at different time-points was extracted using QIAamp DNA Blood Mini Kit. PCR amplifications of peptides from gDNA in parallel with the lentiviral plasmid library (naïve library) were performed using indexed Illumina PCR primers to incorporate both the Illumina adapter sequences and indexing sequences. Each 50 μl reaction contained 3.2 μg of template, 2×PCR buffer, 2× enhancer solution, 300 μM each dNTP, 900 nM each of Adapter A (5′-[…]-[…]-3′) (SEQ ID NO: 42) and Adapter B (5′-[…]-[…]-3′) (SEQ ID NO: 43), 1 mM MgSO4, 3.75 units of Platinum Pfx polymerase, and water to 50 μl. The PCR reaction was performed by denaturing at 94° C. for 5 minutes, followed by cycling (94° C. for 30 seconds, 65° C. for 30 seconds, 68° C. for 30 seconds)×28 cycles, 68° C. for 5 minutes, then cooling to 4° C. The resulting 244 bp product was purified by electrophoresis in 2% agarose followed by gel extraction. Peptide libraries were quantified using Quant-It assay (Invitrogen) and pooled. […]

## IPIQLKA [PDpep1, top hit of all screens; maps to CHMP2B residues 203-209]
  Slope Norm Reads: 40.54
Normalized Illumina peptide counts, 0 uM MG132
  Reads 0 uM MG132: 168
Normalized Illumina peptide counts, 10 µM MG132
  Reads 10 UM MG132: 20
Normalized Illumina peptide counts, 25 µM MG132
  Reads 25 UM MG132: 3859
Normalized Illumina peptide counts, 50 µM MG132
  Reads 50 UM MG132: 13308
